Like-named read-outs stand apart in the source and are kept apart here.
Target: HCV NS3 protease (UniProt P26663)
Type: biochemical, HCV genotype 1b
Set-up: rows headed: IC50 (μM); IC50 (μM)
Procedure: Recombinant HCV NS3 Protease/NS4A Cofactor Peptide Radiometric Assay
The enzyme was cloned, expressed and prepared according to the protocol described in Example 36. The enzyme was stored at −80° C., thawed on ice and diluted just prior to use in the assay buffer containing the NS4A cofactor peptide.
The substrate used for the NS3 protease/NS4A cofactor peptide radiometric assay, DDIVPC-SMSYTW, is cleaved between the cysteine and the serine residues by the enzyme. The sequence DDIVPC-SMSYTW corresponds to the NS5A/NS5B natural cleavage site in which the cysteine residue in P2 has been substituted for a proline. […] (molar ratio enzyme:cofactor 1:100) in the absence or presence of inhibitors. The separation of substrate from products is performed by adding avidin-coated agarose beads to the assay mixture followed by filtration. The amount of SMS[^125I-Y]TW product found in the filtrate allows for the calculation of the percentage of substrate conversion and of the percentage of inhibition.
The enzymatic reaction was initiated by the addition of the enzyme/NS4A peptide solution and the assay mixture was incubated for 40 min at 23° C. under gentle agitation. Ten (10) μL of 0.5N NaOH were added and 10 μL 1 M MES, pH 5.8 were added to quench the enzymatic reaction.
A non-linear curve fit with the Hill model was applied to the inhibition-concentration data, and the 50% effective concentration (IC50) was calculated by the use of SAS software (Statistical Software System; SAS Institute, Inc. Cary, N.C.). […]
The NS2-NS5B-3′ non coding region was cloned by RT-PCR into the pCR®3 vector (Invitrogen) using RNA extracted from the serum of an HCV genotype 1b infected individual (provided by Dr. Bernard Willems, Hôpital St-Luc, Montréal, Québec, Canada). The NS3-NS4A DNA region was then subcloned by PCR into the pFastBac™ HTa baculovirus expression vector (Gibco/BRL). The vector sequence includes a region encoding a 28-residue N-terminal sequence which contains a hexahistidine tag. The Bac-to-Bac™ baculovirus expression system (Gibco/BRL) was used to produce the recombinant baculovirus. The full length mature NS3 and NS4A heterodimer protein (His-NS3-NS4AFL) was expressed by infecting 10^6 Sf21 cells/mL with the recombinant baculovirus at a multiplicity of infection of 0.1-0.2 at 27° C. The infected culture was harvested 48 to 64 h later by centrifugation at 4° C. The cell pellet was homogenized in 50 mM NaPO4, pH 7.5, 40% glycerol (w/v), 2 mM β-mercaptoethanol, in presence of a cocktail of protease inhibitors. His-NS3-NS4AFL was then extracted from the cell lysate with 1.5% NP-40, 0.5% Triton X-100, 0.5M NaCl, and a DNase treatment. After ultracentrifugation, the soluble extract was diluted 4-fold and bound on a Pharmacia Hi-Trap Ni-chelating column. […] The His-NS3-NS4AFL was stored at −80° C. in 50 mM sodium phosphate, pH 7.5, 10% (w/v) glycerol, 0.5 M NaCl, 0.25 M imidazole, 0.1% NP-40. It was thawed on ice and diluted just prior to use. The protease activity of His-NS3-NS4AFL was assayed in 50 mM Tris-HCl, pH 8.0, 0.25 M sodium citrate, 0.01% (w/v) n-dodecyl-β-D-maltoside, 1 mM TCEP. Five (5) μM of the internally quenched substrate anthranilyl-DDIVPAbu[C(O)—O]-AMY(3-NO2)TW-OH in presence of various concentrations of inhibitor were incubated with 1.5 nM of His-NS3-NS4AFL for 45 min at 23° C. […] The reaction was terminated with the addition of 1M MES, pH 5.8. Fluorescence of the N-terminal product was monitored on a Perkin-Elmer LS-50B fluorometer equipped with a 96-well plate reader (excitation wavelength: 325 nm; emission wavelength: 423 nm).
The following tables list compounds representative of the invention.

HCV NS3 protease, sequence (P26663 1027-1206, other chains not shown): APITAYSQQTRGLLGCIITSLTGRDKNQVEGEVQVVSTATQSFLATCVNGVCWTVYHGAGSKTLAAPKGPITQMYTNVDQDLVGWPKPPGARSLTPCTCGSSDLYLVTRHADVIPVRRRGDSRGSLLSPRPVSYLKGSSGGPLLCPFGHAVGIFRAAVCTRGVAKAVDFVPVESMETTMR

Row | Structure (SMILES) | IC50 (Table 7) | IC50 (Table 8)
1 | C=CC1C[C@]1(NC(=O)[C@@H]1C[C@@H](Oc2cc(C(C)(C)C)nc3cc(OC)ccc23)CN1C(=O)[C@@H](NC(=O)OC(C)(C)C)C(C)(C)C)C(=O)O (stereo partly shown) [compound 736] | 250 nM | –
2 | C=CC1CC1(NC(=O)C1CC(Oc2cc(C3CCCCC3)nc3cc(OC)ccc23)CN1C(=O)C(NC(=O)OC(C)(C)C)C(C)(C)C)C(=O)O (stereo not shown) [compound 737] | 110 nM | –
3 | C=CC1CC1(NC(=O)C1CC(Oc2cc(-c3ccccc3)nc3cc(OC)ccc23)CN1C(=O)C(NC(=O)C(O)C1CCCCC1)C(C)(C)C)C(=O)O (stereo not shown) [compound 802] | – | 24 nM
4 | C=CC1CC1(NC(=O)C1CC(Oc2cc(-c3ccccc3)nc3cc(OC)ccc23)CN1C(=O)C(NC(=O)CC1CCCCC1)C(C)(C)C)C(=O)O (stereo not shown) [compound 804] | – | 32 nM
5 | C=CC1CC1(NC(=O)C1CC(Oc2cc(-c3ccccc3)nc3cc(OC)ccc23)CN1C(=O)C(NC(C)=O)C(C)(C)C)C(=O)O (stereo not shown) [compound 805] | – | 83 nM
6 | C=CC1CC1(NC(=O)C1CC(Oc2cc(-c3ccccc3)nc3cc(OC)ccc23)CN1C(=O)C(NC(=O)C(C)C1CCCCC1)C(C)(C)C)C(=O)O (stereo not shown) [compound 806] | – | 36 nM
7 | C=CC1CC1(NC(=O)C1CC(Oc2cc(-c3ccccc3)nc3cc(OC)ccc23)CN1C(=O)C(NC(=O)NC(C)C)C(C)(C)C)C(=O)O (stereo not shown) [compound 807] | – | 10 nM
8 | C=CC1CC1(NC(=O)C1CC(Oc2cc(-c3ccccc3)nc3cc(OC)ccc23)CN1C(=O)C(NC(=O)NC1CCCCC1)C(C)(C)C)C(=O)O (stereo not shown) [compound 808] | – | 8 nM
9 | C=CC1CC1(NC(=O)C1CC(Oc2cc(-c3ccccc3)nc3cc(OC)ccc23)CN1C(=O)C(Nc1ccccc1)C(C)C)C(=O)O (stereo not shown) [compound 809] | – | 71 nM
10 | C=CC1CC1(NC(=O)C1CC(Oc2cc(-c3ccccc3)nc3cc(OC)ccc23)CN1C(=O)C(NC(=O)COc1c(C)cccc1C)C(C)(C)C)C(=O)O (stereo not shown) [compound 810] | – | 450 nM
11 | C=CC1CC1(NC(=O)C1CC(Oc2cc(-c3ccc(Cl)cc3)nc3cc(OC)ccc23)CN1C(=O)C(NC(=O)OC(C)(C)C)C(C)(C)C)C(=O)O (stereo not shown) [compound 811] | – | 40 nM
12 | C=CC1CC1(NC(=O)C1CC(Oc2cc(-c3ccccc3)nc3cc(OC)ccc23)CN1C(=O)C(NC(=O)Nc1ccccc1)C(C)(C)C)C(=O)O (stereo not shown) [compound 812] | – | 13 nM
13 | C=CC1CC1(NC(=O)C1CC(Oc2cc(-c3ccccc3)nc3cc(OC)ccc23)CN1C(=O)C(NC(=S)NC(C)(C)C)C(C)(C)C)C(=O)O (stereo not shown) [compound 813] | – | 20 nM
14 | C=CC1CC1(NC(=O)C1CC(Oc2cc(-c3ccccc3Cl)nc3cc(OC)ccc23)CN1C(=O)C(NC(=O)OC(C)(C)C)C(C)(C)C)C(=O)O (stereo not shown) [compound 814] | – | 130 nM
15 | C=CC1CC1(NC(=O)C1CC(Oc2cc(-c3cccc(Cl)c3)nc3cc(OC)ccc23)CN1C(=O)C(NC(=O)OC(C)(C)C)C(C)(C)C)C(=O)O (stereo not shown) [compound 815] | – | 160 nM
16 | C=CC1CC1(NC(=O)C1CC(Oc2cc(-c3ccccc3)nc3cc(OC)ccc23)CN1C(=O)C(NC(=O)NCC)C(C)(C)C)C(=O)O (stereo not shown) [compound 816] | – | 32 nM
17 | C=CC1CC1(NC(=O)C1CC(Oc2cc(-c3ccccc3)nc3cc(OC)ccc23)CN1C(=O)C(NC(=O)NCc1ccccc1)C(C)(C)C)C(=O)O (stereo not shown) [compound 817] | – | 17 nM
18 | C=CC1CC1(NC(=O)C1CC(Oc2cc(-c3ccccc3)nc3cc(OC)ccc23)CN1C(=O)C(NC(=S)NC1CCCCC1)C(C)(C)C)C(=O)O (stereo not shown) [compound 818] | – | 19 nM
19 | C=CC1CC1(NC(=O)C1CC(Oc2cc(-c3ccccc3)nc3cc(OC)ccc23)CN1C(=O)C(Nc1ccc([N+](=O)[O-])c(C(F)(F)F)c1)C(C)C)C(=O)O (stereo not shown) [compound 819] | – | 320 nM
20 | C=CC1CC1(NC(=O)C1CC(Oc2cc(-c3ccccc3)nc3cc(OC)ccc23)CN1C(=O)C(Nc1ccc(N)c(C(F)(F)F)c1)C(C)C)C(=O)O (stereo not shown) [compound 820] | – | 63 nM

Row | Structure (SMILES) | IC50 (Table 7) | IC50 (Table 8)
21 | C=CC1CC1(NC(=O)C1CC(Oc2cc(-c3ccccc3)nc3cc(OC)ccc23)CN1C(=O)C(Nc1cccc(OC)c1)C(C)C)C(=O)O (stereo not shown) [compound 821] | – | 120 nM
22 | C=CC1CC1(NC(=O)C1CC(Oc2cc(-c3ccccc3)nc3cc(OC)ccc23)CN1C(=O)C(Nc1ccc(C)cc1)C(C)C)C(=O)O (stereo not shown) [compound 822] | – | 50 nM
23 | C=CC1CC1(NC(=O)C1CC(Oc2cc(-c3ccccc3OC)nc3cc(OC)ccc23)CN1C(=O)C(NC(=O)OC(C)(C)C)C(C)(C)C)C(=O)O (stereo not shown) [compound 823] | – | 107 nM
24 | C=CC1CC1(NC(=O)C1CC(Oc2cc(-c3ccccc3)nc3cc(OC)ccc23)CN1C(=O)C(NCc1ccccc1)C(C)C)C(=O)O (stereo not shown) [compound 826] | – | 780 nM
25 | C=CC1CC1(NC(=O)C1CC(Oc2cc(-c3ccccc3)nc3cc(OC)ccc23)CN1C(=O)C(NC(=O)NN(C)C)C(C)(C)C)C(=O)O (stereo not shown) [compound 827] | – | 270 nM
26 | C=CC1CC1(NC(=O)C1CC(Oc2cc(-c3ccccc3)nc3cc(OC)ccc23)CN1C(=O)C(Nc1cccc(C(C)=O)c1)C(C)C)C(=O)O (stereo not shown) [compound 828] | – | 100 nM
27 | C=CC1CC1(NC(=O)C1CC(Oc2cc(-c3ccccc3)nc3cc(OC)ccc23)CN1C(=O)C(NC(=O)Nc1c(C)cccc1C)C(C)(C)C)C(=O)O (stereo not shown) [compound 829] | – | 57 nM
28 | C=CC1CC1(NC(=O)C1CC(Oc2cc(-c3ccccc3)nc3cc(OC)ccc23)CN1C(=O)C(NC(=O)OC)C(C)(C)C)C(=O)O (stereo not shown) [compound 830] | – | 111 nM
29 | C=CC1CC1(NC(=O)C1CC(Oc2cc(-c3ccccc3)nc3cc(OC)ccc23)CN1C(=O)C(NC(=O)NC(C)C(N)=O)C(C)(C)C)C(=O)O (stereo not shown) [compound 831] | – | 15 nM
30 | C=CC1CC1(NC(=O)C1CC(Oc2cc(-c3ccccc3)nc3cc(OC)ccc23)CN1C(=O)C(NC(=O)NC(C)(C)C(N)=O)C(C)(C)C)C(=O)O (stereo not shown) [compound 833] | – | 15 nM
31 | C=CC1CC1(NC(=O)C1CC(Oc2cc(-c3ccccc3)nc3cc(OC)ccc23)CN1C(=O)C(Nc1cccc(C)c1)C(C)C)C(=O)O (stereo not shown) [compound 834] | – | 74 nM
32 | C=CC1CC1(NC(=O)C1CC(Oc2cc(-c3ccccc3)nc3cc(OC)ccc23)CN1C(=O)C(NC(=O)NC(C)(C)CO)C(C)(C)C)C(=O)O (stereo not shown) [compound 835] | – | 7 nM
33 | C=CC1CC1(NC(=O)C1CC(Oc2cc(-c3ccccc3)nc3cc(OC)ccc23)CN1C(=O)C(Nc1ccc([N+](=O)[O-])cc1)C(C)C)C(=O)O (stereo not shown) [compound 836] | – | 130 nM
34 | C=CC1CC1(NC(=O)C1CC(Oc2cc(-c3ccccc3)nc3cc(OC)ccc23)CN1C(=O)C(Nc1ccc(Cl)cc1)C(C)C)C(=O)O (stereo not shown) [compound 837] | – | 98 nM
35 | C=CC1CC1(NC(=O)C1CC(Oc2cc(-c3ccccc3)nc3cc(OC)ccc23)CN1C(=O)C(Nc1cccc(CO)c1)C(C)C)C(=O)O (stereo not shown) [compound 838] | – | 94 nM
36 | C=CC1CC1(NC(=O)C1CC(Oc2cc(-c3ccccc3)nc3cc(OC)ccc23)CN1C(=O)C(Nc1ccc(C#N)cc1)C(C)C)C(=O)O (stereo not shown) [compound 839] | – | 100 nM
37 | C=CC1CC1(NC(=O)C1CC(Oc2cc(-c3ccccc3)nc3cc(OC)ccc23)CN1C(=O)C(Nc1ccc(F)cc1)C(C)C)C(=O)O (stereo not shown) [compound 840] | – | 85 nM
38 | C=CC1CC1(NC(=O)C1CC(Oc2cc(-c3ccccc3C)nc3cc(OC)ccc23)CN1C(=O)C(NC(=O)OC(C)(C)C)C(C)(C)C)C(=O)O (stereo not shown) [compound 841] | – | 240 nM
39 | C=CC1CC1(NC(=O)C1CC(Oc2cc(-c3cccc(C)c3)nc3cc(OC)ccc23)CN1C(=O)C(NC(=O)OC(C)(C)C)C(C)(C)C)C(=O)O (stereo not shown) [compound 842] | – | 73 nM
40 | C=CC1CC1(NC(=O)C1CC(Oc2cc(-c3ccc(C)cc3)nc3cc(OC)ccc23)CN1C(=O)C(NC(=O)OC(C)(C)C)C(C)(C)C)C(=O)O (stereo not shown) [compound 843] | – | 53 nM

From patent US6534523B1, “Hepatitis C inhibitor tri-peptides” (Boehringer Ingelheim (Canada) Ltd., priority 1998, dated 2003)
